Measured values taken from patent publication US6797819B1, “Alkaloids” (President and Fellows of Harvard College, priority 1998, dated 2004).
Entries after “also recorded” stand apart in the source; their conditions may differ.

System: VSVG-GFP trafficking in BSC1 cells
Type: cell-based, monkey

Structure (SMILES)	effect on the secretory pathway	ability to block protein trafficking from the golgi apparatus to the plasma membrane	inhibition of VSVG-GFP movement from the golgi apparatus to the plasma membrane	inhibition of the movement of a specific cellular protein from the golgi apparatus to the plasma membrane
COc1ccc2c3c1O[C@H]1C[C@@H](O)C=C[C@@]31CCN(C)C2 [galanthamine, reference compound]	no observable effect on the secretory pathway			
COc1ccc(CS[C@@H]2CC(=NOCc3ccccc3)C[C@H]3Oc4c(Br)c(OCC5CC5)cc5c4[C@]32C[C@@H](CO)NC5)cc1 [secramine]		block protein trafficking from the golgi apparatus to the plasma membrane	potent inhibitor of VSVG-GFP movement from the golgi apparatus to the plasma membrane; also recorded: Golgi to PM Blocker	potent inhibitor of the movement of a specific cellular protein from the golgi apparatus to the plasma membrane
